Test results reported in paper PMC11369081, “Molecular mechanism of prolactin-releasing peptide recognition and signaling via its G protein-coupled receptor” (Cell Discovery, 2024).
Peptide text beside a SMILES is read from it.

Experiments:
Assay type in all cases: cell-based
PrRPR Q141A = molecular target: T1, PrRPR Q141A (Homo sapiens, UniProt P49683, Q141A); experiment: BRET2 Gq dissociation, Q141A; conditions: Q141A (3.32), Gq-coupling, AD293 cells; mean ± S.E.M., n = 3; P 0.0059 vs WT; read-out: BRET2 pEC50 (converted)
T1 construct: expressed in transfected cells; host or cells: AD293 cells
Description: (§1) AD293 cells (Agilent) were propagated in Dulbecco’s Modified Eagle Medium (DMEM, Thermo Fisher Scientific), enriched with 10% fetal bovine serum (FBS, Thermo Fisher Scientific), and maintained at 37 °C in a 5% CO2 environment. Cells were then seeded in 6-well dishes at a density of 130,000–150,000 cells per mL and allowed to incubate overnight. On the next day, cells were transfected with plasmids at a 1:1:1:1 ratio for receptor:Gα-RLuc8:Gβ:Gγ-GFP2[52]. PEI MAX 40 K (BIOHUB) was utilized to form complex with the plasmids at a ratio of 3 µL PEI per µg of plasmids, in OptiMEM (Gibco-Thermo Fisher Scientific) at a concentration of 10 ng plasmids per µL OptiMEM. After 24 h of incubation, the culture was harvested by centrifugation with PBS. The cell suspension was then allocated into a white 384-well plate at a volume of 30 µL per well, followed by the addition of 10 µL of freshly prepared 50 µM coelenterazine 400a (Yeasen). […] Plates were subsequently read in a BioTek Synergy H1 microplate reader (BioTek) equipped with 395 nm (RLuc8-coelenterazine 400a) and 510 nm (GFP2) emission filters. BRET2 ratios were calculated as the ratio of the GFP2 emission to RLuc8 emission. […]
(§2) Supplementary Fig. S4 | Effects of mutations in the ligand-binding pocket and G protein intereface of Gq coupled PrRPR by BRET2 assay. […] BRET2 assay signals were measured after stimulation with PrRP20. […]

PrRPR L203A = molecular target: T2, PrRPR L203A (Homo sapiens, UniProt P49683, L203A); experiment: BRET2 Gq dissociation, L203A; conditions: L203A (ECL2), Gq-coupling, AD293 cells; mean ± S.E.M., n = 3; P 0.0021 vs WT; read-out: BRET2 pEC50 (converted)
T2 construct: expressed in transfected cells; host or cells: AD293 cells
Description: as §1, §2

PrRPR L210A = molecular target: T3, PrRPR L210A (Homo sapiens, UniProt P49683, L210A); experiment: BRET2 Gq dissociation, L210A; conditions: L210A (ECL2), Gq-coupling, AD293 cells; mean ± S.E.M., n = 3; P <0.0001 vs WT; read-out: BRET2 pEC50 (converted)
T3 construct: expressed in transfected cells; host or cells: AD293 cells
Description: as §1, §2

PrRPR Y225A = molecular target: T4, PrRPR Y225A (Homo sapiens, UniProt P49683, Y225A); experiment: BRET2 Gq dissociation, Y225A; conditions: Y225A (5.38), Gq-coupling, AD293 cells; mean ± S.E.M., n = 3; P <0.0001 vs WT; read-out: BRET2 pEC50 (converted)
T4 construct: Flag; expressed in transfected cells; host or cells: AD293 cells
Description: as §1, §2

PrRPR L294A = molecular target: T5, PrRPR L294A (Homo sapiens, UniProt P49683, L294A); experiment: BRET2 Gq dissociation, L294A; conditions: L294A (6.51), Gq-coupling, AD293 cells; mean ± S.E.M., n = 3; P <0.0001 vs WT; read-out: BRET2 pEC50 (converted)
T5 construct: Flag; expressed in transfected cells; host or cells: AD293 cells
Description: as §1, §2

PrRPR N298A = molecular target: T6, PrRPR N298A (Homo sapiens, UniProt P49683, N298A); experiment: BRET2 Gq dissociation, N298A; conditions: N298A (6.55), Gq-coupling, AD293 cells; mean ± S.E.M., n = 3; P 0.0042 vs WT; read-out: BRET2 pEC50 (converted)
T6 construct: Flag; expressed in transfected cells; host or cells: AD293 cells
Description: as §1, §2

PrRPR Q317A = molecular target: T7, PrRPR Q317A (Homo sapiens, UniProt P49683, Q317A); experiment: BRET2 Gq dissociation, Q317A; conditions: Q317A (7.35), Gq-coupling, AD293 cells; mean ± S.E.M., n = 3; P <0.0001 vs WT; read-out: BRET2 pEC50 (converted)
T7 construct: Flag; expressed in transfected cells; host or cells: AD293 cells
Description: as §1, §2

PrRPR WT = molecular target: T8, PrRPR WT (Homo sapiens, UniProt P49683); experiment: BRET2 Gi dissociation, WT; conditions: Gi-coupling, AD293 cells
T8 construct: expressed in transfected cells; host or cells: AD293 cells
T8 sequence (P49683 1-370): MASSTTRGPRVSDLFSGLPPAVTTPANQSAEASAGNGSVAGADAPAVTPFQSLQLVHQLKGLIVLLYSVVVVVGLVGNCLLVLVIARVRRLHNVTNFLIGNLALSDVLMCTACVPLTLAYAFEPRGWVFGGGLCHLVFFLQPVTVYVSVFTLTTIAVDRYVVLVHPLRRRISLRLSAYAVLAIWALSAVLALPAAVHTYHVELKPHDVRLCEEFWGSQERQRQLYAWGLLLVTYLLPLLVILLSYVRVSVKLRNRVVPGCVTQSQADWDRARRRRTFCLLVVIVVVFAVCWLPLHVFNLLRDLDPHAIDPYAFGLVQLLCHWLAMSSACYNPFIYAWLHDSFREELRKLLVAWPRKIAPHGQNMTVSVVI
Description: (§3) AD293 cells (Agilent) were propagated in Dulbecco’s Modified Eagle Medium (DMEM, Thermo Fisher Scientific), enriched with 10% fetal bovine serum (FBS, Thermo Fisher Scientific), and maintained at 37 °C in a 5% CO2 environment. Cells were then seeded in 6-well dishes at a density of 130,000–150,000 cells per mL and allowed to incubate overnight. On the next day, cells were transfected with plasmids at a 1:1:1:1 ratio for receptor:Gα-RLuc8:Gβ:Gγ-GFP2[52]. PEI MAX 40 K (BIOHUB) was utilized to form complex with the plasmids at a ratio of 3 µL PEI per µg of plasmids, in OptiMEM (Gibco-Thermo Fisher Scientific) at a concentration of 10 ng plasmids per µL OptiMEM. After 24 h of incubation, the culture was harvested by centrifugation with PBS. The cell suspension was then allocated into a white 384-well plate at a volume of 30 µL per well, followed by the addition of 10 µL of freshly prepared 50 µM coelenterazine 400a (Yeasen). Following a 15-min equilibration period, cells were treated with 10 µL of ligand for an additional 5 min. Plates were subsequently read in a BioTek Synergy H1 microplate reader (BioTek) equipped with 395 nm (RLuc8-coelenterazine 400a) and 510 nm (GFP2) emission filters. BRET2 ratios were calculated as the ratio of the GFP2 emission to RLuc8 emission. Data were normalized to the baseline response of the ligand. […]

PrRPR C113A = molecular target: T9, PrRPR C113A (Homo sapiens, UniProt P49683, C113A); experiment: BRET2 Gi dissociation, C113A; conditions: C113A (2.57), Gi-coupling, AD293 cells; mean ± S.E.M., n = 3; P 0.0008 vs WT; read-out: BRET2 pEC50 (converted)
T9 construct: expressed in transfected cells; host or cells: AD293 cells
Description: as §3

PrRPR T117A = molecular target: T10, PrRPR T117A (Homo sapiens, UniProt P49683, T117A); experiment: BRET2 Gi dissociation, T117A; conditions: T117A (2.61), Gi-coupling, AD293 cells; mean ± S.E.M., n = 3; P <0.0001 vs WT; read-out: BRET2 pEC50 (converted)
T10 construct: expressed in transfected cells; host or cells: AD293 cells
Description: as §3

T1 sequence (P49683 whole entry Q141A): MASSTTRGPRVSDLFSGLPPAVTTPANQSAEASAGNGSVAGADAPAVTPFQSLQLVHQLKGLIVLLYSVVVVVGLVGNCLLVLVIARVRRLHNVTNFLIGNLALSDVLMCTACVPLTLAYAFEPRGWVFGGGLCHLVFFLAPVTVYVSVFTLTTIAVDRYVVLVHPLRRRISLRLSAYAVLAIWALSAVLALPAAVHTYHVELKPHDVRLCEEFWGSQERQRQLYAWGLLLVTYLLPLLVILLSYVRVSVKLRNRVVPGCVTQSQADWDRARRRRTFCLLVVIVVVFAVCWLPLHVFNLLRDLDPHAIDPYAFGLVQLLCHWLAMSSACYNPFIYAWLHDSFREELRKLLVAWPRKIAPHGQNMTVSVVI
T9 sequence (P49683 whole entry C113A): as the sequence (P49683 whole entry Q141A) above, with C113A, A141Q counted along it
T4 sequence (P49683 whole entry Y225A): as the sequence (P49683 whole entry Q141A) above, with A141Q, Y225A counted along it
T2 sequence (P49683 whole entry L203A): as the sequence (P49683 whole entry Q141A) above, with A141Q, L203A counted along it
T6 sequence (P49683 whole entry N298A): as the sequence (P49683 whole entry Q141A) above, with A141Q, N298A counted along it
T10 sequence (P49683 whole entry T117A): as the sequence (P49683 whole entry Q141A) above, with T117A, A141Q counted along it
T5 sequence (P49683 whole entry L294A): as the sequence (P49683 whole entry Q141A) above, with A141Q, L294A counted along it
T7 sequence (P49683 whole entry Q317A): as the sequence (P49683 whole entry Q141A) above, with A141Q, Q317A counted along it
T3 sequence (P49683 whole entry L210A): as the sequence (P49683 whole entry Q141A) above, with A141Q, L210A counted along it

EC50 (PrRPR Q141A): 3.02 nM
EC50 (PrRPR L203A): 3.09 nM
EC50 (PrRPR L210A): 7.08 nM
EC50 (PrRPR Y225A): 178 nM
EC50 (PrRPR L294A): 5.62 nM
EC50 (PrRPR N298A): 2.95 nM
EC50 (PrRPR Q317A): 309 nM
BRET2 span (PrRPR WT; WT (reference for normalisation), n = 3): 100.00 %WT
EC50 (PrRPR WT; WT, 5 min ligand, mean ± S.E.M., n = 3 (triplicates), read-out: BRET2 pEC50 (converted)): 1.86 nM
EC50 (PrRPR C113A): 7.08 nM
EC50 (PrRPR T117A): 3470 nM
SMILES: CC[C@H](C)[C@H](NC(=O)CNC(=O)[C@H](CCCNC(=N)N)NC(=O)[C@H](CO)NC(=O)[C@H](C)NC(=O)[C@H](Cc1ccc(O)cc1)NC(=O)[C@H](Cc1c[nH]c2ccccc12)NC(=O)[C@H](C)NC(=O)[C@@H]1CCCN1C(=O)[C@H](CC(N)=O)NC(=O)[C@@H](NC(=O)[C@H](CC(=O)O)NC(=O)[C@@H]1CCCN1C(=O)[C@@H](N)[C@@H](C)O)[C@@H](C)CC)C(=O)N[C@@H](CCCNC(=N)N)C(=O)N1CCC[C@H]1C(=O)N[C@H](C(=O)NCC(=O)N[C@@H](CCCNC(=N)N)C(=O)N[C@@H](Cc1ccccc1)C(N)=O)C(C)C [PrRP20] (H-TPDINPAWYASRGIRPVGRF-NH2)
